Test results: patent publication US10765687B2, “Methods and compounds to inhibit enveloped virus release” (Northwestern University, priority 2012, dated 2020)
Where two headings read alike, the source gives them in different places.

Assays:
[1] = system: 293 cells
[2] = system: ASLV virus like particles (VLPs); assay: ASLV VLP release from 293 cells, Western blot with anti-ASLV Gag antibody; type: cell-based; settings: FIG. 6A, compared with untreated cells
Procedure: 293/E cells were cultured in DMEM supplemented with 10% fetal bovine serum, penicillin (1,000 units/ml), and streptomycin (1,000 μg/ml) to 50% confluence at 37° C. Expression of plasmids from p2036 was high in 293/E cells because these cells stably express the EBNA1 protein of EBV and the p2036 constructs contain the EBV FR plasmid maintenance element that EBNA 1 binds. Therefore 293/E cells were used when proteins expressed from p2036 were to be detected by western analysis. In all experiments, 24-well plates of 293/E cells were transfected with 0.5 μg of p2036-ASLV Gag with the X-treme Gene9 transfection reagent (Roche Diagnostics, Alameda, Calif., USA) according to the manufacturer's instructions. After 24 h after DNA transfection, the cells were washed with 1×DPS that contained CaCl2 (0.1 mM) and MgCl2 (1 mM) [Gibco #14040-133], and 1 ml of cell culture medium (10% FBS, 1% Penicillin/Streptomycin) containing CaCl2 (0.5 mM) and MgCl2 (5 mM) was added. […]
For the budding assay, both media and cell lysate fractions were collected. […] After blocking of the membrane with wash buffer (10 mM Tris-HCl, pH 8.0, 150 mM NaCl, and 0.1% Tween 20) containing 5% nonfat dry milk, ASLV Gag proteins were detected with an AMV MA (p19) directed monoclonal antibody (mAb) and an anti-mouse IgG-HRP secondary antibody for ECL (Denville Scientific; Metuchen, N.J.).

[3] = system: 293 cells; assay: Toxicity of inhibitor concentrations to cultured cells of the VLP release assay; settings: concentrations of FIG. 6A

Structure (SMILES) | Cell toxicity of inhibitor concentrations [1] | Release of ASLV VLPs from cells [2] | Cell toxicity of inhibitor concentrations [3]
Cl.NC(CO)C(=O)NNCc1ccc(O)c(O)c1O (racemic) [Benserazide Hydrochloride, (RS)-2-amino-3-hydroxy-N′-(2,3,4-trihydroxybenzyl) propanehydrazide hydrochloride] | not cell toxic | budding defect | –
CN(C)[C@@H]1C(O)=C(C(N)=O)C(=O)[C@@]2(O)C(=O)C3=C(O)c4c(O)cccc4[C@@](C)(O)[C@H]3[C@H](O)[C@@H]12 [Oxytetracycline, (4S,4aR,5S,5aR,6S,12aS)-4-(dimethylamino)-3,5,6,10,11,12a-hexahydroxy-6-methyl-1,12-dioxo-1,4,4a,5,5a,6,12,12a-octahydrotetracene-2-carboxamide] | – | budding defect | not cell toxic
